Measurements from ChEMBL document CHEMBL3885881, “DrugMatrix”.

Organism: Rattus norvegicus
Experiment: DrugMatrix - Regimen: Daily Repeat
Format: toxicity, organism-based, Sprague-Dawley
Set-up: regimen Daily Repeat, gender Male, age 6-8 weeks
Conditions: in vivo, po, route oral GAVAGE, vehicle .5 % CMC; for BASOPHIL / EOSINOPHIL / ERYTHROCYTE COUNT / HEMATOCRIT / HEMOGLOBIN / LEUKOCYTE COUNT / LYMPHOCYTE / MEAN CORPUSCULAR HEMOGLOBIN / MEAN CORPUSCULAR HEMOGLOBIN CONCENTRATION / MEAN CORPUSCULAR VOLUME / MONOCYTE / NEUTROPHIL / PLATELET COUNT: tissue Blood; for ALANINE AMINOTRANSFERASE / ALBUMIN / ALKALINE PHOSPHATASE / ASPARTATE AMINOTRANSFERASE / BLOOD UREA NITROGEN / CHLORIDE / CHOLESTEROL / CREATINE PHOSPHOKINASE / CREATININE / GLUCOSE / PHOSPHORUS / POTASSIUM / SODIUM / TOTAL BILIRUBIN / TOTAL PROTEIN: tissue Plasma
[1] = 0 mg/kg, 72 h, dose level Control, time 3 day
[2] = 0 mg/kg, 120 h, dose level Control, time 5 day
[3] = 25 mg/kg, 72 h, dose level Low, time 3 day
[4] = 25 mg/kg, 120 h, dose level Low, time 5 day

N=C(N)NCCN1CCCCCCC1 [GUANETHIDINE]
BASOPHIL [1]: 0% | EOSINOPHIL [1]: 0% | ERYTHROCYTE COUNT [1]: 6.34 x10E6/uL | HEMATOCRIT [1]: 37.62% | HEMOGLOBIN [1]: 14.82 G/DL | LEUKOCYTE COUNT [1]: 11.18 x10E3/uL | LYMPHOCYTE [1]: 87.5% | MEAN CORPUSCULAR HEMOGLOBIN [1]: 23.48 pg | MEAN CORPUSCULAR HEMOGLOBIN CONCENTRATION [1]: 39.5 G/DL | MEAN CORPUSCULAR VOLUME [1]: 59.45 fL | MONOCYTE [1]: 1.67% | NEUTROPHIL [1]: 10.83% | PLATELET COUNT [1]: 1074.83 x10E3/uL | ALANINE AMINOTRANSFERASE [1]: 36.5 u/L | ALBUMIN [1]: 3.9 G/DL | ALKALINE PHOSPHATASE [1]: 370.17 u/L | ASPARTATE AMINOTRANSFERASE [1]: 63.17 u/L | BLOOD UREA NITROGEN [1]: 16.83 mg/dL | CHLORIDE [1]: 99.33 MEQ/L | CHOLESTEROL [1]: 64.33 mg/dL | CREATINE PHOSPHOKINASE [1]: 127 u/L | CREATININE [1]: 0.55 mg/dL | GLUCOSE [1]: 173.5 mg/dL | PHOSPHORUS [1]: 10.08 mg/dL | POTASSIUM [1]: 6.23 MEQ/L | SODIUM [1]: 143.5 MEQ/L | TOTAL BILIRUBIN [1]: 0.52 mg/dL | TOTAL PROTEIN [1]: 6.35 G/DL | BASOPHIL [2]: 0% | EOSINOPHIL [2]: 0.17% | ERYTHROCYTE COUNT [2]: 6.12 x10E6/uL | HEMATOCRIT [2]: 37.08% | HEMOGLOBIN [2]: 14.82 G/DL | LEUKOCYTE COUNT [2]: 11.87 x10E3/uL | LYMPHOCYTE [2]: 83.33% | MEAN CORPUSCULAR HEMOGLOBIN [2]: 24.25 pg | MEAN CORPUSCULAR HEMOGLOBIN CONCENTRATION [2]: 39.97 G/DL | MEAN CORPUSCULAR VOLUME [2]: 60.65 fL | MONOCYTE [2]: 1.5% | NEUTROPHIL [2]: 15% | PLATELET COUNT [2]: 1042.83 x10E3/uL | ALANINE AMINOTRANSFERASE [2]: 46 u/L | ALBUMIN [2]: 3.82 G/DL | ALKALINE PHOSPHATASE [2]: 369.5 u/L | ASPARTATE AMINOTRANSFERASE [2]: 65 u/L | BLOOD UREA NITROGEN [2]: 16.33 mg/dL | CHLORIDE [2]: 100.67 MEQ/L | CHOLESTEROL [2]: 57.17 mg/dL | CREATINE PHOSPHOKINASE [2]: 130 u/L | CREATININE [2]: 0.53 mg/dL | GLUCOSE [2]: 163.33 mg/dL | PHOSPHORUS [2]: 9.53 mg/dL | POTASSIUM [2]: 6.27 MEQ/L | SODIUM [2]: 144.83 MEQ/L | TOTAL BILIRUBIN [2]: 0.55 mg/dL | TOTAL PROTEIN [2]: 6.32 G/DL | BASOPHIL [3]: 0% | EOSINOPHIL [3]: 0% | ERYTHROCYTE COUNT [3]: 6 x10E6/uL | HEMATOCRIT [3]: 35.93% | HEMOGLOBIN [3]: 14.07 G/DL | LEUKOCYTE COUNT [3]: 11.77 x10E3/uL | LYMPHOCYTE [3]: 86.33% | MEAN CORPUSCULAR HEMOGLOBIN [3]: 23.5 pg | MEAN CORPUSCULAR HEMOGLOBIN CONCENTRATION [3]: 39.17 G/DL | MEAN CORPUSCULAR VOLUME [3]: 60.07 fL | MONOCYTE [3]: 0% | NEUTROPHIL [3]: 13.67% | PLATELET COUNT [3]: 1321.67 x10E3/uL | ALANINE AMINOTRANSFERASE [3]: 33.67 u/L | ALBUMIN [3]: 3.63 G/DL | ALKALINE PHOSPHATASE [3]: 372.67 u/L | ASPARTATE AMINOTRANSFERASE [3]: 57.67 u/L | BLOOD UREA NITROGEN [3]: 11.33 mg/dL | CHLORIDE [3]: 98.67 MEQ/L | CHOLESTEROL [3]: 63.67 mg/dL | CREATINE PHOSPHOKINASE [3]: 142.33 u/L | CREATININE [3]: 0.43 mg/dL | GLUCOSE [3]: 175.67 mg/dL | PHOSPHORUS [3]: 12.27 mg/dL | POTASSIUM [3]: 5.97 MEQ/L | SODIUM [3]: 143.67 MEQ/L | TOTAL BILIRUBIN [3]: 0.33 mg/dL | TOTAL PROTEIN [3]: 5.8 G/DL | BASOPHIL [4]: 0% | EOSINOPHIL [4]: 0.67% | ERYTHROCYTE COUNT [4]: 5.92 x10E6/uL | HEMATOCRIT [4]: 35.83% | HEMOGLOBIN [4]: 14.4 G/DL | LEUKOCYTE COUNT [4]: 11.83 x10E3/uL | LYMPHOCYTE [4]: 89.67% | MEAN CORPUSCULAR HEMOGLOBIN [4]: 24.33 pg | MEAN CORPUSCULAR HEMOGLOBIN CONCENTRATION [4]: 40.17 G/DL | MEAN CORPUSCULAR VOLUME [4]: 60.63 fL | MONOCYTE [4]: 1% | NEUTROPHIL [4]: 8.67% | PLATELET COUNT [4]: 1170.33 x10E3/uL | ALANINE AMINOTRANSFERASE [4]: 33 u/L | ALBUMIN [4]: 3.53 G/DL | ALKALINE PHOSPHATASE [4]: 229.67 u/L | ASPARTATE AMINOTRANSFERASE [4]: 54.67 u/L | BLOOD UREA NITROGEN [4]: 10.33 mg/dL | CHLORIDE [4]: 100.33 MEQ/L | CHOLESTEROL [4]: 57.67 mg/dL | CREATINE PHOSPHOKINASE [4]: 129.33 u/L | CREATININE [4]: 0.47 mg/dL | GLUCOSE [4]: 170.67 mg/dL | PHOSPHORUS [4]: 11.13 mg/dL | POTASSIUM [4]: 5.9 MEQ/L | SODIUM [4]: 145.33 MEQ/L | TOTAL BILIRUBIN [4]: 0.2 mg/dL | TOTAL PROTEIN [4]: 5.7 G/DL
